{"source": "patent US20230405125A1", "about": "“TREATMENT OF RECURRENT GIOBLASTOMA WITH PERILLYL ALCOHOL” (NeOnc Technologies, Inc., priority 2020, published 2023)", "origin": "cited, not measured here", "key": {"[1]": {"system": "patients with recurrent malignant gliomas"}, "[2]": {"system": "patients with different solid tumors", "details": "oral POH"}, "[3]": {"molecular_target": "farnesyl-protein transferase (FPT) (Homo sapiens, UniProt P49354+P49356)"}, "[4]": {"details": "Reardon et al. (CheckMate 143) 2020"}}, "note": "Entries after “also recorded” stand apart in the source; their conditions may differ. Read-outs that look alike come from different tables or passages of the source.", "data": [{"compound": "CCOP(=O)(OCC)C(C)NC(=O)N(CCCl)N=O", "note": "(stereo not drawn) [Fotemustine]", "values": [{"measurement": "OS-6", "setting": "recurrent GBM patients; human, in vivo", "value": 73, "unit": "%"}, {"measurement": "OS-9", "setting": "recurrent GBM patients; human, in vivo", "value": 47, "unit": "%"}, {"measurement": "OS-12", "setting": "recurrent GBM patients; human, in vivo", "value": 40, "unit": "%"}, {"measurement": "median OS", "setting": "recurrent GBM patients; human, in vivo", "value": 8.7, "unit": "months"}]}, {"compound": "O=NN(CCCl)C(=O)NC1CCCCC1", "note": "[Lomustine]", "values": [{"measurement": "OS-6", "setting": "recurrent GBM patients; Batchelor et al. 2013", "value": 70, "unit": "%"}, {"measurement": "OS-9", "setting": "recurrent GBM patients; Batchelor et al. 2013", "value": 52, "unit": "%"}, {"measurement": "OS-12", "setting": "recurrent GBM patients; Batchelor et al. 2013", "value": 41, "unit": "%"}, {"measurement": "median OS", "setting": "recurrent GBM patients; Batchelor et al. 2013", "value": 9.8, "unit": "months"}]}, {"compound": "C=C(C)[C@@H]1CC=C(CO)CC1", "note": "[POH]", "values": [{"measurement": "six month progression free survival rate", "setting": "[1]; intranasal commercial grade POH with solvent cocktail, 150 patients", "value": 50, "unit": "%"}, {"measurement": "radiographic response", "setting": "[1]; intranasal commercial-grade POH", "value": "Radiographic regression"}, {"measurement": "tolerability / adverse effects", "setting": "[1]; intranasal commercial-grade POH, four times daily", "value": "minimal side effect; also recorded: good tolerance; also recorded: no severe adverse effects"}, {"measurement": "anti-cancer efficacy", "setting": "[2]", "value": "limited"}, {"measurement": "tolerability", "setting": "[2]", "value": "Gastrointestinal toxicity proved dose-limiting"}, {"measurement": "tolerability", "setting": "[2]; listed as perillyl alcohol", "value": "poorly tolerated"}, {"measurement": "effect on FPT enzymatic activity", "setting": "[3]", "value": "inhibit"}]}, {"compound": "Bevacizumab: humanized monoclonal antibody against VEGF (vascular endothelial growth factor)", "values": [{"measurement": "OS-6", "setting": "recurrent GBM patients; Field et al. (CABARET) 2015", "value": 61, "unit": "%"}, {"measurement": "OS-9", "setting": "recurrent GBM patients; Field et al. (CABARET) 2015", "value": 39, "unit": "%"}, {"measurement": "OS-12", "setting": "recurrent GBM patients; Field et al. (CABARET) 2015", "value": 24, "unit": "%"}, {"measurement": "median OS", "setting": "recurrent GBM patients; Field et al. (CABARET) 2015", "value": 7.5, "unit": "months"}, {"measurement": "OS-6", "setting": "recurrent GBM patients; Heiland et al. 2016", "value": 18, "unit": "%"}, {"measurement": "OS-12", "setting": "recurrent GBM patients; Heiland et al. 2016", "value": 10, "unit": "%"}, {"measurement": "median OS", "setting": "recurrent GBM patients; Heiland et al. 2016", "value": 4.1, "unit": "months"}, {"measurement": "OS-6", "setting": "recurrent GBM patients; Taal et al. (BELOB) 2014", "value": 64, "unit": "%"}, {"measurement": "OS-9", "setting": "recurrent GBM patients; Taal et al. (BELOB) 2014", "value": 38, "unit": "%"}, {"measurement": "OS-12", "setting": "recurrent GBM patients; Taal et al. (BELOB) 2014", "value": 26, "unit": "%"}, {"measurement": "median OS", "setting": "recurrent GBM patients; Taal et al. (BELOB) 2014", "value": 8.0, "unit": "months"}]}, {"compound": "Nivolumab: fully human monoclonal antibody targeting the programmed death-1 (PD-1) immune checkpoint receptor", "values": [{"measurement": "OS-6", "setting": "recurrent GBM patients; [4]", "value": 72, "unit": "%"}, {"measurement": "OS-9", "setting": "recurrent GBM patients; [4]", "value": 52, "unit": "%"}, {"measurement": "OS-12", "setting": "recurrent GBM patients; [4]", "value": 42, "unit": "%"}, {"measurement": "median OS", "setting": "recurrent GBM patients; [4]", "value": 9.8, "unit": "months"}]}]}
